Test results from ChEMBL document CHEMBL1153675, “Synthesis and opioid binding properties of 2-chloroacrylamido derivatives of 7,8-dihydromorphinans” (Bioorg Med Chem Lett, 1996).

The molecules below were run against Mu-type opioid receptor (Bos taurus, UniProt P79350) (assay: Compound was tested for Inhibition of [3H]DAMGO (0.25 nM) binding to mu receptor from bovine striatal membranes).
Mu-type opioid receptor, sequence (P79350 whole entry): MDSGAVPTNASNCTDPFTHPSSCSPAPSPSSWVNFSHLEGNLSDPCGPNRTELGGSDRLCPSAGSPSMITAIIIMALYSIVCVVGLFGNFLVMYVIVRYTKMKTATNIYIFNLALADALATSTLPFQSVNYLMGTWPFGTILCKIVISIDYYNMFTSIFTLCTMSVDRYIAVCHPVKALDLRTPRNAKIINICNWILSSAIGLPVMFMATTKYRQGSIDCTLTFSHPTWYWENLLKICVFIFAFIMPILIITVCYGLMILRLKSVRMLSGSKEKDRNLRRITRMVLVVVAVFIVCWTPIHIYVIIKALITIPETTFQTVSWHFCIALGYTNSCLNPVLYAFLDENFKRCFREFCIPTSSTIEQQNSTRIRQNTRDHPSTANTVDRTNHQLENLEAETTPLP

Compound	IC50
C=C(Cl)C(=O)N[C@@H]1CCC2C3Cc4ccc(O)c5c4C2(CCN3C)[C@H]1O5 (some centres undefined)	0.56 nM
C=C(Cl)C(=O)N[C@@]12CCC(=O)[C@@H]3Oc4c(O)ccc5c4C31CCN(CC1CC1)C2C5 (some centres undefined)	23.5 nM
C=C(Cl)C(=O)N[C@@H]1CCC2C3Cc4ccc(O)c5c4C2(CCN3CC2CC2)[C@H]1O5 (some centres undefined)	0.21 nM
C=C(Cl)C(=O)N[C@@]12CCC(=O)[C@@H]3Oc4c(O)ccc5c4C31CCN(C)C2C5 (some centres undefined)	5.8 nM
